Entries after “also recorded” stand apart in the source; their conditions may differ.
Tests used:
[1] = test system: ATGL; assay: Western blot of ATGL level in HepG2 cells; format: cell-based; parameters: key to Increase in ATGL level: + = slight or in insignificant; ++ = Moderate; +++ and ++++ = active; +++ and ++++ = active; +++++ = very active; conditions: western blot; for Increase in ATGL level: HepG2 cells, score; for ATGL level in HepG2 cells: 24 hours, 10 μM screening or 50 nM-5 μM dose dependent
Procedure: (§1) To select the compounds capable of inhibiting the ubiquitination of ATGL by COP1 by targeting the VP motif, confocal microscopy was performed with the provided molecules. If the compound was effective in inhibiting the interaction, there would be a reduction in the number of fat droplets in the cells after treatment. […] With this rationale in mind, HepG2 cells were induced to accumulate lipid droplets after treatment with 250 µM of oleate and 10 μM of the specific compounds were added. The potential of the compounds to bring about a reduction in the number of fat droplets was then checked by comparison with oleate induced cells by counting number of droplets of approximately 20 cells from each treatment and calculating the average number of lipid droplets of each cell. The selected compounds were then subjected to dose dependent treatments and the ones which could maintain its potency to reduce fat droplets at lower doses were then selected for western blot analysis. The compound which could reduce the number of fat droplets in the cells are expected to raise the levels of ATGL since they are likely to deter COP1 from ubiquitinating ATGL. This increase will be visible only in the protein level and gene expression is likely to remain unchanged since ubiquitination is a […] modification. Thus, western blot was performed to check ATGL levels in the cells with the selected molecules.
HepG2 cells were treated with the compounds 9, 10, 11, 17, 18, 23, 24, 115, 123, 127, 139,107, 171, 179, 73, 187, 211, 215, 219, 223, 232, 238, 241, 244, 258, 299, 308, and 333a, (10 μM for initial screening and 50 nM, 100 nM, 200 nM, 500 nM, 1 μM and 5 μM for dose dependent assays) for 24 hours. After removing media from the cells, the wells were washed with 1×PBS twice to remove any remnant media. Cells were then lysed in lysis buffer containing 50 mM Tris-HCl (pH 7.4), 100 mM NaCl, 1 mM EDTA, 1 mM EGTA, 1% Triton X-100 and protease inhibitor cocktail (Millipore, Billierica, MA, USA). Following centrifugation at 20,000 g for 20 minutes, the protein solution was extracted from the cells. Protein was estimated using Bradford assay. Bradford's reagent (BioRad) was diluted in 1:4 ratio in double distilled water. 2 μl of protein sample was added to 100 μl of the reagent and absorbance was measured at 595 nm. […] of protein was diluted in lysis buffer. 1× loading buffer diluted from 5× stock containing 250 mM Tris-HCl (pH 6.8), 10% SDS, 50% glycerol, 0.1% bromophenol Blue and 10% β-mercaptoethanol was added. The protein samples were then heated at 95° C. for 10 minutes, cooled and centrifuged at 12,000 g for 2 minutes prior to loading.
For western blotting, the proteins were resolved in 10% SDS PAGE (discontinuous buffer system). 1× running buffer containing SDS, Tris Base and Glycine was used to run the gel at 80V for approximately 2 hours. Transfer was done using PVDF membrane (Millipore) having pore size of 0.45 μm. 1× transfer buffer containing Tris-Base, Glycine and 20% methanol was used for wet transfer. Transfer was done at 90V for 3 hours. Following transfer, the PVDF membrane containing the proteins were washed in 1×PBST comprising of 1×PBS and 1% Tween 20 (Sigma Aldrich). The membrane was then incubated for 1 hour at room temperature in 5% skim milk powder to block the non-specific sites. Following multiple washes with 1×PBST to wash away any remaining blocking buffer, the required primary antibody (COP1 [Bethyl Laboraties], ATGL [Cell Signalling Technology] or Actin[Cell Signalling Technology]) prepared with 1×PBST, 1% Bovine Serum Albumin and 0.04% Sodium Azide was added to the membrane and incubated overnight at 4° C. The next day, the membrane was again washed multiple times with 1×PBST to remove any unbound primary antibody. The membrane was then incubated with goat anti-rabbit secondary antibody (Genei) for 1 hour at room temperature and washed again for multiple times with 1×PBST. […]

[2] = test system: HepG2 cells; assay: Confocal microscopy: lipid droplets in oleate induced HepG2 cells; format: cell-based; parameters: key to Reduction in Lipid Droplets: + = slight or in insignificant; ++ = Moderate; +++ and ++++ = active; +++ and ++++ = active; +++++ = very active; conditions: for Reduction in Lipid Droplets: oleate induced HepG2 cells, score
Procedure: as §1
HepG2 cells were plated in confocal dishes (SPL, Genetix Biotech Asia Pvt. Ltd.). The cells were allowed to adhere and divide for 16 hours. 10 μM for initial screening and 10 nM, 20 nM, 50 nM, 100 nM, 200 nM, 500 nM, 1 μM and 5 μM for dose dependent assays of the compounds 9 and 107 were dissolved in DMSO and added to the cells. 250 μM of oleate was used for induction. BSA (Sigma Aldrich) was used as a negative control. Post 24 hours of treatment, media was decanted from the cells and washed with 1×PBS solution to remove any remnant. 200 μl of staining solution containing 200 ng/ml BODIPY (Invitrogen) and 25 µg/ml HOECKST342 (Invitrogen) were added to the cells and incubated at 37° C. for 30 minutes under dark conditions. Cells were washed 3 times with 1×PBS to remove excess stain. FLUOVIEW FV10i (Olympus) was used to visualise the cells.

| SMILES | Increase in ATGL level [1] | Reduction in Lipid Droplets [2] | ATGL level in HepG2 cells [1] | Number of lipid droplets ([2]; HepG2 cells, 250 μM oleate induction) |
| --- | --- | --- | --- | --- |
| COCCn1cnc2ccc(NC(=O)Nc3ccccc3)cc2c1=O [Compound 5, 1-(3-(2-methoxyethyl)-4-oxo-3,4-dihydroquinazolin-6-yl)-3-phenylurea] | ++ | ++ | – | – |
| COCCn1cnc2ccc(NC(=O)Nc3cccc(OC)c3)cc2c1=O [Compound 6, 1-(3-(2-methoxyethyl)-4-oxo-3,4-dihydroquinazolin-6-yl)-3-(3-methoxyphenyl)urea] | ++++ | ++++ | increase in ATGL level | reduction of lipid droplet |
| COCCn1cnc2ccc(NC(=O)Nc3cccc([N+](=O)[O-])c3)cc2c1=O [Compound 8, 1-(3-(2-methoxyethyl)-4-oxo-3,4-dihydroquinazolin-6-yl)-3-(3-nitrophenyl)urea] | + | ++ | – | – |
| COCCn1cnc2ccc(NC(=O)Nc3cccc(C(C)O)c3)cc2c1=O (stereo not drawn) [Compound 11, 1-(3-(1-hydroxyethyl)phenyl)-3-(3-(2-methoxyethyl)-4-oxo-3,4-dihydroquinazolin-6-yl)urea] | + | + | increased ATGL level | – |
| COCCn1cnc2ccc(NC(=O)Nc3cc(C(=O)OC)ccc3OC)cc2c1=O [Compound 12, methyl 4-methoxy-3-(3-(3-(2-methoxyethyl)-4-oxo-3,4-dihydroquinazolin-6-yl)ureido)benzoate] | +++ | ++ | – | – |
| CCc1cccc(NC(=O)Nc2ccc3ncn(CCOC)c(=O)c3c2)c1 [Compound 13, 1-(3-ethylphenyl)-3-(3-(2-methoxyethyl)-4-oxo-3,4-dihydroquinazolin-6-yl)urea] | + | + | – | – |
| COCCn1cnc2ccc(NC(=O)Nc3cccc(C(=O)c4ccccc4)c3)cc2c1=O [Compound 14, 1-(3-benzoylphenyl)-3-(3-(2-methoxyethyl)-4-oxo-3,4-dihydroquinazolin-6-yl)urea] | + | + | – | – |
| COCCn1cnc2ccc(NC(=O)Nc3cccc(C(=O)NC4CCCCC4)c3)cc2c1=O [Compound 15, N-cyclohexyl-3-(3-(3-(2-methoxyethyl)-4-oxo-3,4-dihydroquinazolin-6-yl)ureido)benzamide] | ++++ | + | – | – |
| COCCn1cnc2ccc(NC(=O)Nc3cccc(C(=O)NC(C(=O)OC)C(C)C)c3)cc2c1=O (stereo not drawn) [Compound 16, methyl 2-(3-(3-(3-(2-methoxyethyl)-4-oxo-3,4-dihydroquinazolin-6-yl)ureido)benzamido)-3-methylbutanoate] | ++++ | +++ | – | – |
| COCCn1cnc2ccc(NC(=O)Nc3cccc(C(=O)N(C)C)c3)cc2c1=O [Compound 17, 3-(3-(3-(2-methoxyethyl)-4-oxo-3,4-dihydroquinazolin-6-yl)ureido)-N,N-dimethylbenzamide] | +++ | +++ | increased ATGL level; also recorded: ability to increase ATGL level | – |
| COCCn1cnc2ccc(NC(=O)Nc3cccc(C(=O)N4CCCC4)c3)cc2c1=O [Compound 18, 1-(3-(2-methoxyethyl)-4-oxo-3,4-dihydroquinazolin-6-yl)-3-(3-(pyrrolidine-1-carbonyl)phenyl)urea] | ++++ | + | increased ATGL level; also recorded: ability to increase ATGL level | – |
| COCCn1cnc2ccc(NC(=O)Nc3cccc(C(=O)N4CCOCC4)c3)cc2c1=O [Compound 19, 1-(3-(2-methoxyethyl)-4-oxo-3,4-dihydroquinazolin-6-yl)-3-(3-(morpholine-4-carbonyl)phenyl)urea] | + | ++ | ability to increase ATGL level | – |
| COCCn1cnc2ccc(NC(=O)Nc3ccc(C(=O)N4CCCC4)cc3)cc2c1=O [Compound 20, 1-(3-(2-methoxyethyl)-4-oxo-3,4-dihydroquinazolin-6-yl)-3-(4-(pyrrolidine-1-carbonyl)phenyl)urea] | ++ | ++ | ability to increase ATGL level | – |
| COCCn1cnc2ccc(NC(=O)Nc3cccc(-c4nc5ccccc5o4)c3)cc2c1=O [Compound 21, 1-(3-(benzo[d]oxazol-2-yl)phenyl)-3-(3-(2-methoxyethyl)-4-oxo-3,4-dihydroquinazolin-6-yl)urea] | + | + | – | – |
| COCCn1cnc2ccc(NC(=O)Nc3cccc(NC(C)=O)c3)cc2c1=O [Compound 22, N-(3-(3-(3-(2-methoxyethyl)-4-oxo-3,4-dihydroquinazolin-6-yl)ureido)phenyl)acetamide] | + | + | – | – |
| COCCn1cnc2ccc(NC(=O)Nc3cccc(N(C)C(C)=O)c3)cc2c1=O [Compound 23, N-(3-(3-(3-(2-methoxyethyl)-4-oxo-3,4-dihydroquinazolin-6-yl)ureido)phenyl)-N-methylacetamide] | ++++ | ++ | increased ATGL level | – |
| CC(=O)c1cccc(NC(=O)Nc2ccc3ncn(N4CCOCC4)c(=O)c3c2)c1 [Compound 340, 1-(3-acetylphenyl)-3-(3-morpholino-4-oxo-3,4-dihydroquinazolin-6-yl)urea] | + | – | – | – |
| COCCn1c(C)nc2ccc(NC(=O)Nc3cccc(C(C)=O)c3)c(Br)c2c1=O [Compound 345, 1-(3-acetylphenyl)-3-(5-bromo-3-(2-methoxyethyl)-2-methyl-4-oxo-3,4-dihydroquinazolin-6-yl)urea] | + | – | – | – |

Reference: patent US12528777B2, “Quinazolinones derivatives for treatment of non-alcoholic fatty liver disease, preparation and use thereof” (Council of Scientific and Industrial Research, priority 2020, dated 2026)
